Values joined by “and” are separate entries in the source; they are usually repeats but may differ in a detail not shown here. Equal values may be shown once. Active and inactive are the calls of the source.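 How the source made its calls: active means compounds giving half or more protection of infected cells from virus-caused growth loss, again on retest; inactive means the rest.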 Where a SMILES comes first, the peptide text is derived from it. The star is where a group is joined. Boc = CC(C)(C)OC(=O)*

In the test the test system is CEM cells HIV-1 protection, formazan growth assay. The test can be described thus: NCI AIDS Antiviral Assay. Particulars: for IC50: measured here: growth of uninfected CEM cells. Put shortly:
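Five concentrations of each compound were applied to infected and uninfected human CEM cells. Protection from HIV-1 was judged from growth measured with a soluble formazan assay.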

`CSC1NNC2(C(=O)N1)c1ccccc1-c1ccccc12` (stereo not drawn): the EC50 was over 200 µM and the IC50 worked out at 26.9 µM. The corresponding values for `O=C1CSCC(=O)O1` are over 1910 µM and over 1910 µM. Turning to `CN(C)c1ccc(-c2nc3c(=O)n(C)c(=O)n(C)c3nc2-c2ccc(N(C)C)cc2)cc1`, the EC50 is over 200 µM and the IC50 was found to be 126 µM. `O=C1CCCC2=C1CC1=C(CCCC1=O)N2c1cccc([N+](=O)[O-])c1`: the EC50 was over 186 µM and the IC50 came to 170 µM.

For the compound `COC(=O)C1=C(C(=O)OC)NC2=C(C=N1)CCC2`, the EC50 was over 380 µM and the half-maximal inhibitory concentration (IC50) was over 380 µM. As for `O=C1CCCC(=O)C1=C(O)CCCCCCCCCCc1ccccc1`, the EC50 was over 38 µM and the IC50 is over 38 µM. For the compound `CC1(C)C2CCC(CN)(C2)C1N` (stereo not drawn), the EC50 is over 200 µM and the IC50 is over 200 µM. As to `CC(C)(C)OC(=O)NC(Cc1ccc(O)cc1)C(=O)NC(CCCCN)C(=O)O` (stereo not drawn) (Boc-Tyr-Lys-OH; configuration not given here), the EC50 is over 200 µM and the IC50 was determined as 91.2 µM. Turning to `C[n+]1c(-c2ccc(/C=N/NC(=N)N/N=C/c3ccc(-c4cn5cc(Cl)ccc5[n+]4C)cc3)cc2)cn2cc(Cl)ccc21`, the EC50 is 6.46 µM and the IC50 was 155 µM. The corresponding values for `CC(=O)OCC1OC(OCCCOP(=S)(OCCC#N)OCC2OC(n3ccc(N)nc3=O)C(OC(=O)c3ccccc3)C2OC(=O)c2ccccc2)C(OC(C)=O)C(OC(C)=O)C1OC(C)=O` (stereo not drawn) are over 100 µM and over 100 µM. In the case of `CCOC(=O)C(O)(NC(=O)Nc1ccc(F)cc1)C(F)(F)F` (stereo not drawn), the EC50 was over 200 µM and the IC50 was over 200 µM.

As to `NCCCNCCSSC/C=C\CSSCCNCCCN`, the outcome was inactive.

`CCCCCCCCCCC(c1ccc(O)c(C(=O)O)c1)c1ccc(O)c(C(=O)O)c1`: the half-maximal effective concentration (EC50) is over 447 µM and the IC50 came out at 107 µM. In the same order, the values of `CC1(C)C=Cc2c(ccc3c(=O)c(-c4ccccc4)coc23)O1` are over 100 µM and over 100 µM. With `CCOC(CC1(O)C(=O)N(Cc2ccccc2)c2ccccc21)OCC` (stereo not drawn), the EC50 is over 200 µM and the IC50 was over 200 µM.

For the compound `O=c1c(-c2ccc3c(c2)OCO3)coc2cc(O)ccc12`, the EC50 was over 200 µM and the IC50 is over 200 µM. For the compound `CC(C)CCCC(C)C1CCC2C3CC[C@H]4C[C@H](NC(=O)C=C(c5cc(Cl)c(O)c(C(=O)O)c5)c5cc(Cl)c(O)c(C(=O)O)c5)CC[C@]4(C)C3CC[C@]12C` (stereo partly drawn), the EC50 was over 100 µM and the IC50 came to 26.3 µM.

On to `N#Cc1nc(-c2ccccc2O)oc1N`, for which the EC50 was over 200 µM and the half-inhibitory concentration (IC50) was over 100 µM. On to `CC1=C(C(=O)Nc2cccc(Cl)c2)C(c2ccccc2O)C(C(=O)Nc2cccc(Cl)c2)=C(C)N1`, for which the EC50 is over 50.1 µM and the IC50 is 12 µM. The corresponding values for `Cc1nnc2sc3c(Cl)c4nn5c(C)nnc5sc4c(Cl)c3nn12` are over 200 µM and 2.95 µM.

As for `CC(NC(=O)CNC(=O)C(N)CO)C(=O)NC(CCC(N)=O)C(=O)NC(CCC(=O)O)C(=O)NC(C)C(=O)NC(CCCCN)C(=O)NC(CCC(=O)O)C(=O)NC(CCC(N)=O)C(=O)NC(CCCN=C(N)N)C(=O)NC(C(=O)NC(CC(N)=O)C(=O)NC(C)C(=O)NC(Cc1cnc[nH]1)C(=O)NC(CO)C(=O)O)C(C)O` (stereo not drawn) (H-SGAQEAKEQRTNAHS-OH; configuration not given here), the EC50 is over 100 µM and the IC50 was over 100 µM.

Consider `CC12C=NNC1(C)C(=O)C1(C)CN=NC1(C)C2=O` (stereo not drawn), for which the EC50 is over 200 µM and the IC50 was over 200 µM.

Turning to `COc1cc(OC)cc(N(C)Cc2cnc3nc(N)nc(N)c3c2C)c1`, the EC50 is over 200 µM and the IC50 is 0.138 µM. The corresponding values for `[O]=[Bi](=[O])[O]CC(O)CO` (stereo not drawn) are over 4.37 µM and over 4.37 µM. In the same order, the values of `S=C1NCCN1C(=S)Nc1ccccc1` are over 141 µM and over 141 µM. For `Cc1noc(NS(=O)(=O)c2ccc(NC(=O)c3ccc4[nH]c5ccccc5c(=O)c4c3)cc2)c1C`, the EC50 is over 200 µM and the IC50 was 44.7 µM. For `[C-]#[N+][C@@H]1C2C([C@@]3(C)CCC(C(C)(C)[N+]#[C-])O3)CC[C@](C)([N+]#[C-])[C@H]2CC[C@@]1(C)O` (stereo partly drawn), the result was inactive. `CN(C)C(=N/O)/C(=N\O)N(C)C`: the outcome was inactive. For the compound `CCOC(=O)N1CCN(Cc2cc(=O)n3ccc(C)cc3n2)CC1`, the EC50 is over 200 µM and the IC50 was over 200 µM. For the compound `O=P(O)(O)OP(=O)(O)O`, the EC50 is 182 µM and the IC50 was over 200 µM.

Regarding `O=C1c2c(ccc3c2CCCC3)CC12Cc1ccc3c(c1C2=O)CCCC3`, the EC50 was over 200 µM and the IC50 was over 200 µM.

Regarding `CCN(CC)CC(=O)Nc1cccc(C(=O)OC(C)C)c1`, the EC50 is over 200 µM and the concentration for half-maximal inhibition (IC50) was over 200 µM. `NC1=NN(c2ccccc2)C2(c3ccncc3C(=O)O)C1C(N)=NN2c1ccccc1` (stereo not drawn): the EC50 was over 200 µM and the IC50 is over 200 µM. Take `Cn1c(=O)c2c(nc3n2CCCC(=O)N3CCCCl)n(C)c1=O`: the EC50 is over 100 µM and the IC50 was over 100 µM. Take `COC(=O)C1CC2(CCC1=O)Cc1ccccc1C2=O` (stereo not drawn): the EC50 was over 200 µM and the IC50 came to 72.4 µM. In the same order, the values of `Cc1ccc(C2(Br)C(=O)c3ccccc3C2=O)cc1` are over 200 µM and over 200 µM. Regarding `Cc1c(-c2ccccc2)nn2cc(-c3ccccc3)nnc12`, the EC50 was over 200 µM and the IC50 came out at 11 µM. As for `Cc1[nH]c2ccccc2c1C1Cc2ccccc2N1C(=O)/C=C/C=C/c1ccccc1` (stereo not drawn), the EC50 was over 9.33 µM and the IC50 was over 9.33 µM. Consider `CCOC(=O)c1nc2cc(C(F)(F)F)ccc2nc1Nc1ccc(C(=O)OC)s1`, for which the EC50 is over 50.1 µM and the IC50 turned out to be 30.9 µM.

As for `CC(Cc1ccccc1)NC(=O)CCNNC(=O)c1ccncc1` (stereo not drawn), the EC50 was over 200 µM and the IC50 is over 200 µM. For `CCOC(=O)/C=C/SCCCC(=O)O`, the IC50 is > 1150 µM and 1150 µM.

For `COc1ccc(CN2COc3c(cc(C)c4cccnc34)C2)cc1`, the EC50 was over 200 µM and the half-inhibitory concentration (IC50) was 1.02 µM. In the case of `COC(=O)/C=C/CC(=O)NS(C)(=O)=O`, the EC50 is over 200 µM and the IC50 was over 200 µM.

On to `C=CC1(c2ccc3ccccc3c2)OCC(CC)O1` (stereo not drawn), for which the EC50 is over 200 µM and the IC50 was found to be 87.1 µM. Take `COc1ccc(Cc2cc(N=O)c(C)cc2O)cc1`: the EC50 is over 200 µM and the IC50 came out at 12.6 µM. In the same order, the values of `NC(N)=NN=C(c1ccccc1)c1ccccc1` are over 200 µM and 1.02 µM. In the same order, the values of `O=C1C2C3C=C4c5ccccc5N(c5ccccc5)C4(C2C(=O)N1c1ccc(Cl)cc1)[C@H]1C(=O)N(c2ccc(Cl)cc2)C(=O)[C@@H]31` (stereo partly drawn) are over 3.16 µM and over 3.16 µM. In the same order, the values of `CC/C(=N/O)C(C)C(=O)CCC(=O)Nc1ccc(Cl)cc1` (stereo not drawn) are over 83.2 µM and over 83.2 µM. Regarding `Cc1cn(C2CCN(CC3COC(C)(C)O3)O2)c(=O)[nH]c1=O` (stereo not drawn), the EC50 was over 200 µM and the IC50 is over 200 µM. Regarding `O=C(CC(=O)c1cccc([N+](=O)[O-])c1)C(=O)Nc1nc([N+](=O)[O-])cs1`, the EC50 was over 20 µM and the IC50 is over 20 µM. As for `Cc1ccc(S(=O)(=O)SC(SCC(=O)c2ccc(Br)cc2)C(=O)c2ccc(Br)cc2)cc1` (stereo not drawn), the EC50 is over 40.7 µM and the IC50 is 38.9 µM. Regarding `COc1ccc(NCc2cc(OC)c(OC)c(OC)c2)cc1`, the EC50 is over 2 µM; the IC50 was 0.214 µM and 0.316 µM. In the case of `Cc1ccc(NP(=O)(Oc2ccccc2)N(CCCl)CCCl)cc1` (stereo not drawn), the EC50 was over 35.5 µM and the IC50 stood at 15.8 µM. Take `CC(C)N(C(=O)C12C3(C(=O)OC(C)(C)C)C4C5(C#N)C3C1(C(=O)OC(C)(C)C)C5C42C(=O)OC(C)(C)C)C(C)C` (stereo not drawn): the EC50 is over 200 µM and the half-inhibitory concentration (IC50) amounted to 23.4 µM. In the same order, the values of `COC(=O)c1[nH]c(=O)c(C#N)c(C(=O)OC)c1C(=O)/C=C/c1ccccc1` are over 51.3 µM and over 51.3 µM.

Turning to `N/C(=N/N=C/C1CCCCC1)NO`, the result was inactive. As to `O=C1c2cccn2-c2ccccc2SC1c1ccccc1` (stereo not drawn), the EC50 was over 200 µM and the IC50 worked out at 20.4 µM.

`O=C(O)c1cccc(S(=O)(=O)NN2C(=O)CSC2c2ccc(Cl)cc2Cl)c1` (stereo not drawn): the EC50 was over 200 µM and the IC50 came out at 35.5 µM.

On to `c1cc2nnc1SCCSCCSCCSc1ccc(nn1)SCCSCCSCCS2`, for which the EC50 was over 200 µM and the IC50 was over 200 µM.

In the case of `CC1(C)O[C@@H](CP(c2cccc3ccccc23)c2cccc3ccccc23)[C@H](CP(c2cccc3ccccc23)c2cccc3ccccc23)O1`, the EC50 was over 200 µM and the IC50 is over 200 µM.

As to `CCC(C)C(CC)C(N)=O` (stereo not drawn), the EC50 is over 200 µM and the IC50 is over 200 µM. Regarding `CC(=O)c1c(O)ccc2c1CC(CC=O)O2` (stereo not drawn), the EC50 is over 589 µM and the IC50 was determined as 22.9 µM. The corresponding values for `Cn1c2ccccc2c2nc3ccccc3c(Cl)c21` are over 200 µM and 135 µM. In the same order, the values of `CC(=O)Nc1ccc(/C=C2\N=C(c3ccccc3)OC2=O)cc1` are over 12.3 µM and over 12.3 µM. The corresponding values for `NC(=S)NN=C1Cc2ccccc2C1` are over 200 µM and 145 µM. For the compound `N#CC(C(=O)/C(=N/Nc1nc(=S)[nH]n1N)C(C#N)c1ccccc1)c1ccccc1` (stereo not drawn), the EC50 is over 17.4 µM and the IC50 is over 17.4 µM. Turning to `O/N=C1/C(=C/c2ccc(Oc3ccccc3)cc2)CCCC1C(NO)c1ccc(Oc2ccccc2)cc1` (stereo not drawn), the EC50 was over 10.2 µM and the half-maximal inhibitory concentration (IC50) was over 10.2 µM. For `Brc1ccc(/C(N=N/C(=N\Sc2ccccc2)c2ccc(Br)cc2)=N/Sc2ccccc2)cc1`, the EC50 was over 50.1 µM and the IC50 is over 50.1 µM. Consider `c1c2c(cc(-n3nnc4c3CCCCCC4)c1-n1nnc3c1CCCCCC3)CCCCCC2`, for which the EC50 is over 21.9 µM and the IC50 is over 21.9 µM.

A word on the EC50: it is the concentration giving half of the maximal effect. In general, IC50 refers to the concentration that gives 50% inhibition. Higher therefore signals weaker potency.

(Values after PubChem BioAssay AID179 (DTP/NCI, 2004).)
